In patent US20060058299A1, “N-2s-4-3,4-difluorobenzyl morpholin-2yl methyl -2-(3-methylsulphonyl amino!phenyl acetamide as ccr3 antagonist for the treatment of inflammatory conditions” (priority 2002, published 2006):

Tests used:
[1] = molecular target: T1, CCR-3 (Homo sapiens, UniProt P51677); assay: CCR-3 competition binding SPA ([125I]eotaxin); conditions: membranes from K562 cells stably expressing CCR-3; 20 pM [125I]eotaxin; mean of at least two experiments; read-out: pIC50 (inhibition of [125I]eotaxin binding) (converted)
T1 construct: expressed in transfected cells; membranes)
T1 sequence (P51677 1-355): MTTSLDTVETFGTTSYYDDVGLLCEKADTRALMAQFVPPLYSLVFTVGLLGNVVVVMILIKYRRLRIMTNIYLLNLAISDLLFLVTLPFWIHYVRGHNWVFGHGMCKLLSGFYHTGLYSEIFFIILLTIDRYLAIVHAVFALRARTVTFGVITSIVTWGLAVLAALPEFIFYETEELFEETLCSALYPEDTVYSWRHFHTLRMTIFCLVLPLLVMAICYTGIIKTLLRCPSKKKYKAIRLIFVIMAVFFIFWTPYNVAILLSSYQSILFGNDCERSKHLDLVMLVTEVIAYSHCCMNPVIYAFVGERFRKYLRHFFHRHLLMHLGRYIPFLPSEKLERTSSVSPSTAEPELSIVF
Method: A CCR-3 competition binding SPA (scintillation proximity assay) was used to assess the affinity of novel compounds for CCR-3. Membranes prepared from K562 cells stably expressing CCR-3 (2.5 μg/well) were mixed with 0.25 mg/well wheat-germ agglutinin SPA beads (Amersham) and incubated in binding buffer (HEPES 50 mM, CaCl2 1 mM, MgCl2 5 mM, 0.5% BSA) at 4° C. for 1.5 hr. Following incubation, 20 pM of [^125I] eotaxin (Amersham) and increasing concentrations of compound (1 pM to 30 μM) were added and incubated in a 96 well plate for 2 hr at 22° C. then counted on a Microbeta plate counter. The total assay volume was 100 μl. Competition binding data were analysed by fitting the data with a four parameter logistic equation. Data are presented as the mean pIC50 values (negative logarithm of the concentration of compound which inhibits [^125I]eotaxin binding by 50%) from at least two experiments.

[2] = molecular target: eosinophils purified from human peripheral blood; assay: Eosinophil chemotaxis assay (eotaxin-induced); type: cell-based; conditions: agonist eotaxin at EC80 concentration
Method: (b) Eosinophil Chemotaxis Assay.
The compound was evaluated for its inhibitory effect on eosinophil chemotaxis. Eosinophils were purified from human peripheral blood by standard CD16 cell depletion using a Miltenyi cell separation column and a magnetic Super Macs magnet as previously described (Motegi & Kita, 1998; J. Immunology. 161:4340-6). Cells were re-suspended in RPMI 1640/10% FCS solution and incubated with calcein-AM (Molecular Probes) at 37° C. for 30 mins. Following incubation, the eosinophils were centrifuged at 400 g for 5 min and re-suspended in RPMI/FCS at 2.2 million/ml. Cells were then incubated in the presence of increasing concentration of compounds (1 pM to 30 μM) at 37° C. for 30 mins. For control responses cells were incubated with RPMI/FCS only. The agonist eotaxin (an EC80 concentration) was added to the lower chamber of a 96 well chemotaxis plate (5 μm filter. Receptor Technologies). Eosinophils (50 μl of 2 million/ml cells) were added to the top chamber of the filter plate and incubated at 37° C. for 45 mins. Cells remaining on top of the chemotaxis filter were removed and the number of eosinophils which had migrated were quantified by reading the plate on a fluorescent plate reader. Inhibition curves for the effect of compounds on eosinophil chemotaxis were analysed by fitting the data with a four parameter logistic equation. […]

`CS(=O)(=O)Nc1cccc(CC(=O)NC[C@H]2CN(Cc3ccc(F)c(F)c3)CCO2)c1` [Example 1, N-{[(2S)-4-(3.4-difluorobenzyl)morpholin-2-yl]methyl}-2-{3-[(methylsulfonyl)amino]phenyl}acetamide] was tested, and the IC50 [1] was 10 nM and the “fpKi (functional pKi, eosinophil chemotaxis)” value [2] was 8.4.
